The text below walks through data of patent publication US20210386505A1, “BACTERIAL BIOFILM STAINING DEVICE AND METHODS OF USE” (University of Utah Research Foundation, priority 2020, published 2021).

The subject of assay [1] is S. aureus biofilms. As to the kind of experiment: Visual MB staining of biofilms on orthopedic coupons, confirmed by SEM. Type of assay: cell-based, Staphylococcus aureus. Conditions: S. aureus biofilms on titanium, cobalt chromium, polyethylene, PEEK coupons; dilute MB. On the procedure:
(§1) Staphylococcus aureus (ATCC 6538) and Pseudomonas aeruginosa (ATCC 27853) biofilms were grown for the respective experiments (2 days) in a CBR 90 CDC biofilm reactor (BioSurface Technologies Corporation, Bozeman, Mont.) on either titanium, cobalt chromium, polyether ether ketone (PEEK), and polyethylene (PE) coupons using previously established methods. Briefly, a 0.5 McFarland standard (˜7.5×10^7 colony forming units (CFU)) was made from a 24 hour tryptic soy agar plate culture; 1 mL was then used to inoculate 500 mL of 100% Brain Heart Infusion (BHI) broth in the biofilm reactor. The reactor and its contents were incubated at 34° C. on a hot plate with baffle rotation for 24 hours. After 24 hours, the reactor was flushed continuously with 10% BHI at 6.94 mL/min for the subsequent 24 hours. Prior to subsequent work, the biofilm coupons were removed aseptically and rinsed in PBS. Quantification of biofilm bioburden was performed on representative coupons from each reactor by dispersing the respective biofilm into 2 mL of fresh 1× phosphate buffered saline (PBS) following an established protocol: sequentially vortexing for 1 minute, sonicating for 10 minutes and vortexing […]. The CFUs were calculated by 10-fold serial dilution plating and colony counting. […]

The test system of assay [2] is Pseudomonas aeruginosa (ATCC 27853) biofilms. As to the kind of experiment: Transmission light photometry of MB bound to stained biofilms. Type of assay: cell-based. Conditions: P. aeruginosa biofilm, 0.01% MB, 5 min stain, n=6. As to the method:
as §1, with “After 24 hours, the reactor was flushed continuously with 10% BHI at 6.94 mL/min for the subsequent 24 hours. Prior to subsequent work, the biofilm coupons were removed aseptically and rinsed in PBS.” left out
(§2) Transmission photometry was used to determine the amount of MB bound to biofilms grown and stained using the above protocols. […] The exposure was fixed for all images analyzed; ambient light sources were eliminated by darkening the room. […]

The subject of assay [3] is Staphylococcus aureus (ATCC 6538) biofilms. Described as above. Type of assay: cell-based. The settings on record: S. aureus biofilm, 0.01% MB, 5 min stain, n=6. As to the method:
as §1, with “After 24 hours, the reactor was flushed continuously with 10% BHI at 6.94 mL/min for the subsequent 24 hours. Prior to subsequent work, the biofilm coupons were removed aseptically and rinsed in PBS.” left out
as §2

Assay [4] concerns P. aeruginosa biofilms. As to the kind of experiment: Visual MB staining of biofilms on orthopedic coupons, confirmed by SEM. The settings on record: P. aeruginosa biofilms on titanium, cobalt chromium, polyethylene, PEEK coupons; dilute MB. Type of assay: cell-based, Pseudomonas aeruginosa. As to the method: as §1

For the compound `CN(C)c1ccc2nc3ccc(=[N+](C)C)cc-3sc2c1` [MB, methylene blue], the “visual staining of biofilm” value in assay [1] and in assay [4] was “visually turned blue” each time. The “number of MB molecules per CFU” value in assay [2] is given as 2.84×10^7 molecules/CFU; in assay [3], 6.95×10^6 molecules/CFU.
